Test results from US20150064286A1, “PREPARATION AND COMPOSITIONS OF HIGHLY BIOAVAILABLE ZEROVALENT SULFUR AND USES THEREOF” (EMORY UNIVERSITY, priority 2011, published 2015).

Legend:
[1] = Percentage bioactive sulfur contained in hydrogen sulfide prodrugs; type: physicochemical; details: sulfur capable of being converted into hydrogen sulfide in vivo
[2] = test system: cavernosal smooth muscle; details: Shukla et al., BJU Int. 2009; cited from earlier work
[3] = test system: superoxide formation; details: Shukla et al., BJU Int. 2009; cited from earlier work
[4] = test system: p47^phox (a subunit of NOX); details: Shukla et al., BJU Int. 2009; cited from earlier work
[5] = molecular target: phosphodiesterase type 5 (PDE5) (Homo sapiens, UniProt O76074); details: Sparatore et al. 2011; cited from earlier work
[6] = test system: NADPH oxidase (NOX); details: Sparatore et al. 2011; cited from earlier work
[7] = test system: pregnant rat uterus; details: pregnant rat uterus in vitro, Sidhu et al. 2001; cited from earlier work
[8] = test system: angiogenesis; details: NaHS in the drinking water, via increasing VEGF expression, Givvimani et al. 2011; cited from earlier work
[9] = Solubility in carbon disulfide; type: physicochemical
Description: The solubility of the composition in carbon disulfide was obtained by adding 6 mL of carbon disulfide to 0.500 g of the final product and determining the weight of the residue.

NC(=S)c1ccc(O)cc1 [4-hydroxythiobenzamide]
% Bioactive sulfur (w/w) [1]: 20.9 % (w/w)

CCCc1nn(C)c2c(=O)[nH]c(-c3cc(S(=O)(=O)N4CCN(CC(=O)Oc5ccc(-c6cc(=S)ss6)cc5)CC4)ccc3OCC)nc12 [ACS 6]
% Bioactive sulfur (w/w) [1]: 3.5 % (w/w)
relaxation of cavernosal smooth muscle [2]: equipotently
inhibition of superoxide formation [3]: more than sildenafil citrate
inhibition of expression of p47phox [4]: more than sildenafil citrate
effect of H2S released by ACS6 on PDE5 [5]: inhibits
effect of H2S released by ACS6 on NOX expression activity [6]: inhibits

O=C(Cc1ccccc1Nc1c(Cl)cccc1Cl)Oc1ccc(-c2cc(=S)ss2)cc1 [ACS 15]
% Bioactive sulfur (w/w) [1]: 6.3 % (w/w)

O=C(CCC/C=C\C[C@@H]1[C@@H](CC[C@@H](O)CCc2ccccc2)[C@H](O)C[C@@H]1O)Oc1ccc(-c2cc(=S)ss2)cc1 [ACS 67]
% Bioactive sulfur (w/w) [1]: 5.3 % (w/w)

COc1ccc2c(c1)c(CC(=O)Oc1ccc(-c3cc(=S)ss3)cc1)c(C)n2C(=O)c1ccc(Cl)cc1 [ATB 343]
% Bioactive sulfur (w/w) [1]: 5.6 % (w/w)

COc1ccc2cc(C(C)C(=O)Oc3ccc(C(N)=S)cc3)ccc2c1 (stereo not drawn) [ATB 346]
% Bioactive sulfur (w/w) [1]: 8.8 % (w/w)

C=CCSSCC=C [Diallyl disulfide]
% Bioactive sulfur (w/w) [1]: 45.1 % (w/w)

C=CCSSSCC=C [Diallyl trisulfide]
% Bioactive sulfur (w/w) [1]: 53.9 % (w/w)

c1ccc(CSSSCc2ccccc2)cc1 [Dibenzyl trisulfide]
% Bioactive sulfur (w/w) [1]: 11.5 % (w/w)

C1COCCN1.COc1ccc(P(=S)(S)N2CCOCC2)cc1 (stereo not drawn) [GYY 4137]
% Bioactive sulfur (w/w) [1]: 8.5 % (w/w)

[Na+].[Na+].[S-2] [Na2S]
% Bioactive sulfur (w/w) [1]: 41 % (w/w)

S [NaHS, sodium hydrogen sulfide]
% Bioactive sulfur (w/w) [1]: 57 % (w/w)
uterine spontaneous contractility [7]: significant dose-dependent decreases
angiogenesis [8]: augmented angiogenesis

[S] [Pure alpha- or beta-elemental sulfur, elemental sulfur]
Solubility in carbon disulfide [9]: completely soluble

C[S+]([O-])CCCCN=C=S (stereo not drawn) [Sulforaphane]
% Bioactive sulfur (w/w) [1]: 18 % (w/w)
